Here are results for twelve compounds from patent publication US20070178054A1, “ORAL ANTIMICROBIAL COMPOSITION” (priority 2005, published 2007).

What all share (format): cell-based, Streptococcus mutans
Assay [1] concerns S. mutans UA159. The assay is described as follows: S. mutans biofilm formation, crystal violet staining (OD 630 nm). To be noted: 24 h, E2 20 μg/ml, combination of both. How it is done:
(§1) Streptococcus mutans UA159 strain was used in these Examples. S. mutans strain UA159 was grown in Todd-Hewitt broth containing 0.3% yeast extract (THYE) at pH 7.0 and was subcultured routinely on THYE agar plates and incubated at 37° C. in an anaerobic chamber (5% CO2). In liquid media, cultures were incubated in closed screw-cap tubes without agitation at 37° C. in an anaerobic chamber (5% CO2)
(§2) Wells without cells were used as blank controls.
(§3) The microtiter plates were then incubated at 37° C. in an anaerobic chamber (5% CO2) for 24 hours without agitation. After the incubation, the growth was measured at 600 nm with a microplate reader. The planktonic cells were carefully removed, and plates were air dried overnight. The plates were then stained with 0.4% crystal violet for 10 minutes, rinsed with sterile distilled water and air dried for 15 minutes. Biofilm was quantified by measuring the absorbance of stained biofilm at 630 nm with a microplate reader.

For assay [2], the system named is biofilm-embedded S. mutans. The assay is described as follows: Survival of biofilm-embedded S. mutans (CFU counts), E2 peptide compositions, 12-well plates. As to conditions: 20 h biofilm, E2 20 μg/ml, combination of both. Here is the method:
as §1
(§4) Biofilms were developed on 12-well polystyrene microtiter plates to provide a rapid and simple method for assaying biofilm-embedded live oral bacteria (e.g. S. mutans). A 4× diluted THYE medium supplemented with final concentration of 0.01% hog gastric mucin (Sigma, St. Louis, Mo.) was used as biofilm medium (BM). Formation of biofilms was initiated by inoculating 20 μl of S. mutans cell suspension (1.2×10^7 CFU/ml) into each well containing 2 ml of BM and four wells were set up: two for control and two for treatment with compositions comprising synthetic E2 peptide and Nisin or E2 and CHX. After cultures were incubated at 37° C. for 20 hours under an anaerobic condition, fluid medium was removed. The wells were rinsed once with 10 mM PBS buffer (pH 7.2) and biofilm-embedded cells were collected in two ml PBS buffer, gently sonicated for 15 seconds, serially diluted, spread on THYE plates, and incubated at 37° C. under anaerobic conditions. Biofilm-embedded viable cells were quantified by colony forming unit (CFU) counts after 48 hours of incubation.

For assay [3], the system named is biofilm-embedded S. mutans. The assay is described as follows: Survival of biofilm-embedded S. mutans (CFU counts), CSP compositions, 12-well plates. As to conditions: 20 h biofilm, combination of both. Here is the method:
as §1
as §4, with “developed in” for “developed on”, “mucin (Sigma)” for “mucin (Sigma, St. Louis, Mo.)”, “(BM). Fonnation” for “(BM). Formation”, “synthetic CSP” for “synthetic E2 peptide”, “or chlorhexidine or xylitol or triclosan or citric acid or zinc citrate or sodium fluoride or oleanolic acid or lansoprazole or epigallocatechin gallate or chitosan.” for “or E2 and CHX.”, “fluid media were” for “fluid medium was”

In assay [4] the test system is S. mutans UA159. The assay is described as follows: S. mutans growth in 96-well microtiter plate (OD 600 nm). As to conditions: 24 h, E2 20 μg/ml, combination of both. Here is the method:
as §1, §2, §3

Assay [5] has as its system biofilm-embedded S. mutans. The assay is described as follows: Survival of biofilm-embedded S. mutans (CFU counts), E2 peptide compositions, 12-well plates. To be noted: 20 h biofilm, E2 20 μg/ml, combination of both. This is another data set of the same source.
[6] abbreviates: CSP 50 μg/ml, nisin 80 μg/ml, control 1.6 × 10^6.
[7] abbreviates: citric acid 1200 μg/ml, control 1.7.
The mark [8] stands for this setting: citric acid 1.2 mg/ml, control 1.23.
Setting [9] is: CSP 40 μg/ml, citric acid 1200 μg/ml, control 3.4 × 10^5.
Setting [10] is: citric acid 1.2 mg/ml, control 0.34.
Where [11] appears, read: CSP 40 μg/ml, chlorhexidine 0.15 μg/ml, control 1.4 × 10^6.
[12] abbreviates: CSP 40 μg/ml, lansoprazole 37 μg/ml, control 1.2 × 10^6.
Setting [13] is: CSP 40 μg/ml, oleanolic acid 250 μg/ml, control 4 × 10^5.
Where [14] appears, read: CSP 40 μg/ml, sodium fluoride 250 μg/ml, control 2.6 × 10^5.
The mark [15] stands for this setting: CSP 40 μg/ml, triclosan 500 μg/ml, control 6.8 × 10^5.
Where [16] appears, read: CSP 40 μg/ml, zinc citrate 1200 μg/ml, control 8 × 10^5.
[17] abbreviates: triclosan 25 μg/ml, control 1.58.
[18] abbreviates: triclosan 25 μg/ml, control 0.33.
The mark [19] stands for this setting: lansoprazole 37 μg/ml, control 8.
Setting [20] is: sodium fluoride 800 μg/ml, control 2.9.
[21] abbreviates: lansoprazole 0.1 mM, control 1.32.
[22] abbreviates: sodium fluoride 600 μg/ml, control 0.93.
Setting [23] is: xylitol 15.2 mg/ml, control 0.78.
The mark [24] stands for this setting: chlorhexidine 0.15 μg/ml, control 1.4.
[25] abbreviates: lansoprazole 0.1 mM, control 0.38.
[26] abbreviates: sodium fluoride 600 μg/ml, control 0.40.
Setting [27] is: xylitol 15.2 mg/ml, control 0.37.

Turning to nisin, the “Biofilm (OD @ 630 nm)” value in the assay on S. mutans UA159 [1] (nisin 80 μg/ml, control 1.03) was 0.6 OD. The “CFU × 10^6” value in assay [2] (nisin 80 μg/ml, control 2.8) is 3.0 CFU × 10^6. For the same compound, the CPU in assay [3] (setting [6]) is 1 × 10^6 CFU. In the assay on S. mutans UA159 [4] (nisin 80 μg/ml, control 0.36), the “Growth (OD @ 600 nm)” value turned out to be 0.23 OD.
Turning to `O=C(O)CC(O)(CC(=O)O)C(=O)O` [Citric acid, citric acid], the “CFU × 10^6” value in assay [5] (setting [7]) stood at 0.05 CFU × 10^6. In addition, the “Biofilm (OD @ 630 nm)” value in the assay on S. mutans UA159 [1] (setting [8]) is given as 0.38 OD. The CPU in assay [3] (setting [9]) is reported as 8 × 10^4 CFU. In addition, in the assay on S. mutans UA159 [4] (setting [10]), the “Growth (OD @ 600 nm)” value was 0.02 OD.
Regarding “SGSLSTFFRLFNRSFTQALGK (Streptococcus mutans) [CSP]”, the CPU was 2.2 × 10^5 CFU in assay [3] (CSP 40 μg/ml, chitosan 0.25 μg/ml, control 7.6 × 10^5); 0.1 × 10^6 CFU in assay [3] (setting [11]); 2 × 10^4 CFU in assay [3] (setting [9]); 1.4 × 10^6 CFU in assay [3] (setting [12]); 2 × 10^4 CFU in assay [3] (setting [13]); 1.7 × 10^5 CFU in assay [3] (setting [14]). The CPU was 7 × 10^4 CFU in assay [3] (setting [15]), 0.5 × 10^5 CFU in assay [3] (setting [16]) and 1 × 10^6 CFU in assay [3] (setting [6]).
Take `Oc1cc(Cl)ccc1Oc1ccc(Cl)cc1Cl` [Triclosan, triclosan, reference compound]: the “Biofilm (OD @ 630 nm)” value in the assay with S. mutans UA159 [1] (setting [17]) is listed as 1.69 OD. Besides, the CPU in assay [3] (setting [15]) is on record as 7 × 10^2 CFU. The “Growth (OD @ 600 nm)” value in the assay on S. mutans UA159 [4] (setting [18]) worked out at 0.33 OD.
With `O=C([O-])CC(O)(CC(=O)[O-])C(=O)[O-].O=C([O-])CC(O)(CC(=O)[O-])C(=O)[O-].[Zn+2].[Zn+2].[Zn+2]` [Zinc citrate, zinc citrate], the CPU in assay [3] (setting [16]) is given as 0.8 × 10^5 CFU.
Regarding “SGSLSTFFRLFNASFTQALGK (Synthetic E2) [Peptide E2, second arginine from the C' terminus substituted with alanine]”, the “CFU × 10^6” value was determined as 0.1 CFU × 10^6 in assay [5] (chitosan 1 μg/ml, control 1.4); 0.6 CFU × 10^6 in assay [5] (setting [7]); 4.3 CFU × 10^6 in assay [5] (setting [19]); 1 CFU × 10^6 in assay [5] (setting [20]); 0.9 CFU × 10^6 in assay [2] (setting [24]); 2.5 CFU × 10^6 in assay [2] (nisin 80 μg/ml, control 2.8). Besides, the “Biofilm (OD @ 630 nm)” value is 0.34 OD with S. mutans UA159 [1] (CHX 0.154 μg/ml, control 0.88); 0.92 OD in the assay on S. mutans UA159 [1] (EGCg 150 μg/ml, control 1.52); 0.33 OD with S. mutans UA159 [1] (OA 2 μg/ml, control 0.8); 1.18 OD in the assay on S. mutans UA159 [1] (chitosan 1 μg/ml, control 2.10); 0.54 OD with S. mutans UA159 [1] (setting [8]); 0.4 OD with S. mutans UA159 [1] (setting [21]). For the same compound, the “Biofilm (OD @ 630 nm)” value in the assay on S. mutans UA159 [1] (nisin 80 μg/ml, control 1.03) is 0.24 OD; in the assay on S. mutans UA159 [1] (setting [22]), 0.16 OD; in the assay on S. mutans UA159 [1] (setting [17]) it was 1.00 OD; with S. mutans UA159 [1] (setting [23]), 0.34 OD. In addition, the “Growth (OD @ 600 nm)” value in the assay with S. mutans UA159 [4] (CHX 0.154 μg/ml, control 0.39) turned out to be 0.11 OD; in the assay on S. mutans UA159 [4] (EGCg 150 μg/ml, control 0.32), 0.22 OD; in the assay with S. mutans UA159 [4] (OA 2 μg/ml, control 0.4), 0.26 OD; with S. mutans UA159 [4] (chitosan 1 μg/ml, control 0.37), 0.28 OD; with S. mutans UA159 [4] (setting [10]), 0.26 OD; with S. mutans UA159 [4] (setting [25]), 0.2 OD. In addition, the “Growth (OD @ 600 nm)” value in the assay with S. mutans UA159 [4] (nisin 80 μg/ml, control 0.36) stood at 0.11 OD; in the assay on S. mutans UA159 [4] (setting [26]), 0.23 OD; in the assay on S. mutans UA159 [4] (setting [18]), 0.12 OD; with S. mutans UA159 [4] (setting [27]), 0.12 OD.
Regarding `CC1(C)CC[C@]2(C(=O)O)CC[C@]3(C)C(=CC[C@@H]4[C@@]5(C)CC[C@H](O)C(C)(C)[C@@H]5CC[C@]43C)[C@@H]2C1` [OA, Oleanolic acid], the “Biofilm (OD @ 630 nm)” value with S. mutans UA159 [1] (OA 2 μg/ml, control 0.8) was determined as 0.94 OD. In addition, in assay [3] (setting [13]), the CPU was 1.7 × 10^5 CFU. Further, the “Growth (OD @ 600 nm)” value with S. mutans UA159 [4] (OA 2 μg/ml, control 0.4) was 0.32 OD.
For the compound `OC[C@@H](O)[C@H](O)[C@@H](O)CO` [Xylitol, xylitol], the “Biofilm (OD @ 630 nm)” value with S. mutans UA159 [1] (setting [23]) came to 0.32 OD. In addition, the “Growth (OD @ 600 nm)” value in the assay on S. mutans UA159 [4] (setting [27]) turned out to be 0.07 OD.
Take `O=C(O[C@@H]1Cc2c(O)cc(O)cc2O[C@@H]1c1cc(O)c(O)c(O)c1)c1cc(O)c(O)c(O)c1` [EGCg, Epigallocatechin gallate]: the “Biofilm (OD @ 630 nm)” value with S. mutans UA159 [1] (EGCg 150 μg/ml, control 1.52) is recorded as 0.41 OD. Also, in the assay on S. mutans UA159 [4] (EGCg 150 μg/ml, control 0.32), the “Growth (OD @ 600 nm)” value stood at 0.08 OD.
For `[H]/N=C(\N/C(=N/[H])NCCCCCCNC(=N)NC(=N)Nc1ccc(Cl)cc1)Nc1ccc(Cl)cc1` [CHX, Chlorhexidine, reference compound], in the assay with S. mutans UA159 [1] (CHX 0.154 μg/ml, control 0.88), the “Biofilm (OD @ 630 nm)” value was 1.00 OD. Further, in assay [2] (setting [24]), the “CFU × 10^6” value is 1.9 CFU × 10^6. Further, the CPU in assay [3] (setting [11]) is 2 × 10^6 CFU. The “Growth (OD @ 600 nm)” value in the assay with S. mutans UA159 [4] (CHX 0.154 μg/ml, control 0.39) is recorded as 0.39 OD.
For the compound `[F-].[Na+]` [Sodium fluoride, sodium fluoride, reference compound], the “CFU × 10^6” value in assay [5] (setting [20]) was determined as 2.7 CFU × 10^6. Also, in the assay with S. mutans UA159 [1] (setting [22]), the “Biofilm (OD @ 630 nm)” value is reported as 0.12 OD. Moreover, in assay [3] (setting [14]), the CPU was 7 × 10^5 CFU. In addition, the “Growth (OD @ 600 nm)” value in the assay on S. mutans UA159 [4] (setting [26]) was 0.02 OD.
Take `Cc1c(OCC(F)(F)F)ccnc1C[S+]([O-])c1nc2ccccc2[nH]1` (stereo not drawn) [Lansoprazole, lansoprazole, reference compound]: in assay [5] (setting [19]), the “CFU × 10^6” value was determined as 6.2 CFU × 10^6. Further, the “Biofilm (OD @ 630 nm)” value in the assay with S. mutans UA159 [1] (setting [21]) is given as 1.35 OD. Also, the CPU in assay [3] (setting [12]) is given as 1 × 10^6 CFU. The “Growth (OD @ 600 nm)” value in the assay with S. mutans UA159 [4] (setting [25]) was found to be 0.4 OD.
